# Measurements from patent publication US20070197590A1, “SUBSTITUTED DIPIPERIDINE CCR2 ANTAGONISTS” (priority 2006, published 2007).
# Target: T1, CCR2 (Homo sapiens, UniProt P41597)
# T1 construct: host or cells: THP-1 cells
# T1 sequence (P41597 1-360 isoform P41597-2): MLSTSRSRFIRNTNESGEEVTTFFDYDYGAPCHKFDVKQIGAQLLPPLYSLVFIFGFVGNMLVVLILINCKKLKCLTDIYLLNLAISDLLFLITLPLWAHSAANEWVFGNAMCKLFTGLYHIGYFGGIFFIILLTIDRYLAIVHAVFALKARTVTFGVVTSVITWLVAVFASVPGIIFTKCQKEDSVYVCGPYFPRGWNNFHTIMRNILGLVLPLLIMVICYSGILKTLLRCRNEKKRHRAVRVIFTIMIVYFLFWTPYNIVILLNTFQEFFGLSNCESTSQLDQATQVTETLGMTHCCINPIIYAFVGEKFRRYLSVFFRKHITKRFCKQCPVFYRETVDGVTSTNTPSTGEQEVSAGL
# Assay: MCP-1 Receptor Binding Assay in THP-1 Cells
# Conditions: THP-1 cells, 0.5 nM 125I labeled MCP-1, 2 hours at 30° C.; read-out: Inhibition of MCP-1 Binding IC50
# Procedure: THP-1 cells were obtained from American Type Culture Collection (Manassas, Va., USA). The THP-1 cells were grown in RPMI-1640 supplemented with 10% fetal bovine serum in a humidified 5% CO2 atmosphere at 37° C. The cell density was maintained […].
# THP-1 cells were incubated with 0.5 nM ^125, labeled MCP-1 (Perkin-Elmer Life Sciences, Inc. Boston, Mass.) in the presence of varying concentrations of either unlabeled MCP-1 (R & D Systems, Minneapolis, Minn.) or test compound for 2 hours at 30° C. in a 96 well plate. Cells were then harvested onto a filter plate, dried, and 20 μL of Microscint 20 was added to each well. Plates were counted in a TopCount NXT, Microplate Scintillation & Luminescence Counter (Perkin-Elmer Life Sciences, Inc. Boston, Mass.). Blank values (buffer only) were subtracted from all values and drug treated values were compared to vehicle treated values. 1 μM cold MCP-1 was used for nonspecific binding.
# Table 1 lists IC50 values for inhibition of MCP-1 binding to CCR2 obtained for test compounds of the invention.
row,IC50 [µM],SMILES
1,1.4,Cc1cccc(/C=C/C(=O)N2CCC(C(O)CN3CCC(c4cc[nH]n4)CC3)CC2)c1 (stereo not shown) [Compound 33]
2,15.4,COc1ccc(/C=C/C(=O)N2CCC(O)(C(O)CN3CCC(c4ccc(C(F)(F)F)cc4)CC3)CC2)cc1OC (stereo not shown) [Compound 140]
3,2.6,Cc1cccc(/C=C/C(=O)N2CCC(CC(CO)N3CCC(c4c[nH]c5ccccc45)CC3)CC2)c1 (stereo not shown) [Compound 57]
4,2.7,"COc1ccc(C2CCN(CC(O)C3CCN(C(=S)Nc4cccc(C#N)c4)CC3)CC2)cc1 (stereo not shown) [Compound 104, 4-{1-hydroxy-2-[4-(4-methoxy-phenyl)-piperidin-1-yl]-ethyl}-piperidine-1-carbothioic acid (3-cyano-phenyl)-amide]"
5,3.9,Cc1cccc(/C=C/C(=O)N2CCC(C(O)CN3CCC(c4nc5ccccc5o4)CC3)CC2)c1 (stereo not shown) [Compound 47]
6,5.8,"O=C(Nc1ccc(F)c(F)c1)N1CCC(O)(C(O)CN2CCC(c3c[nH]c4ccc(N5CCOCC5)cc34)CC2)CC1 (stereo not shown) [Compound 179, 4-hydroxy-4-{1-hydroxy-2-[4-(5-morpholin-4 yl-1H-indol-3-yl)-piperidin-1-yl]-ethyl}-piperidine-1-carboxylic acid (3,4-difluoro-phenyl)-amide]"
7,3.7,"O=C(OCc1ccccc1)N1CCC(O)(C(O)CN2CCC(c3ccc(Cl)cc3)CC2)CC1 (stereo not shown) [Compound 112, 4-{2-[4-(4-chloro-phenyl)-piperidin-1-yl]-1-hydroxy-ethyl}-4-hydroxy-piperidine-1-carboxylic acid benzyl ester]"
8,3.5,O=C(/C=C/c1cc(F)c(F)c(F)c1)N1CCC(CC(CO)N2CCC(c3c[nH]c4ccccc34)CC2)CC1 (stereo not shown) [Compound 55]

# Continued, compound first:
row,SMILES,IC50 [µM]
1,"O=C(Nc1ccc(F)c(F)c1)N1CCC(O)(C(O)CN2CCC(c3ccc(C(F)(F)F)cc3)CC2)CC1 (stereo not shown) [Compound 141, 4-hydroxy-4-{1-hydroxy-2-[4-(4-trifluoromethyl-phenyl)-piperidin-1-yl]-ethyl}-piperidine-1-carboxylic acid (3,4-difluoro-phenyl)-amide]",2.8
2,O=C(Nc1cc(F)ccc1Cl)N1CCC(O)(C(O)CN2CCC(c3c[nH]c4ccc(F)cc34)CC2)CC1 (stereo not shown) [Compound 161],8.3
3,"COc1ccc(C2CCN(CC(O)C3CCN(C(=O)Nc4cc(F)cc(C(F)(F)F)c4)CC3)CC2)cc1 (stereo not shown) [Compound 91, 4-{1-hydroxy-2-[4-(4-methoxy-phenyl)-piperidin-1-yl]-ethyl}-piperidine-1-carboxylic acid (3-fluoro-5-trifluoromethyl-phenyl)-amide]",0.81
4,"O=C(CN1CCC(c2c[nH]c3ncccc23)CC1)C1CCN(C(=O)/C=C/c2cc(F)c(F)c(F)c2)CC1 [Compound 17, 1-(4-{2-[4-(1H-pyrrolo[2,3-b]pyridin-3-yl)-piperidin-1-yl]-acetyl}-piperidin-1-yl)-3-(3,4,5-trifluoro-phenyl)-propenone]",9.4
5,O=C(/C=C/c1ccc(Cl)c(Cl)c1)N1CCC(C(O)C(=O)N2CCC(c3ccc(Cl)cc3)CC2)CC1 (stereo not shown) [Compound 3],3.4
6,"O=C(CCc1ccc(Cl)c(Cl)c1)N1CCC(O)(C(O)CN2CCC(c3c[nH]c4ccc(F)cc34)CC2)CC1 (stereo not shown) [Compound 168, 3-(3,4-dichloro-phenyl)-1-(4-{2-[4-(5-fluoro-1H-indol-3-yl)-piperidin-1-yl]-1-hydroxy-ethyl}-4-hydroxy-piperidin-1-yl)-propan-1-one]",2.7
7,"O=C(C(=O)N1CCC(c2ccc(Cl)cc2)CC1)C1CCN(C(=O)C=Cc2ccc(Cl)c(Cl)c2)CC1 [Compound 2, 1-[4-(4-chloro-phenyl)-piperidin-1-yl]-2-{1-[3-(3,4-dichloro-phenyl)-acryloyl]-piperidin-4-yl}-ethane-1,2-dione]",4.4
8,"O=C(Nc1ccc(Cl)c(Cl)c1)N1CCC(C(O)CN2CCC(c3cc[nH]n3)CC2)CC1 (stereo not shown) [Compound 36, 4-{1-hydroxy-2-[4-(1H-pyrazol-3-yl)-piperidin-1-yl]-ethyl}-piperidine-1-carboxylic acid (3,4-dichloro-phenyl)-amide]",1.1
9,O=C(/C=C/c1cc(F)cc(F)c1)N1CCC(C(O)CN2CCC(c3nc4ccccc4o3)CC2)CC1 (stereo not shown) [Compound 46],2.1
10,O=C(/C=C/c1cc(F)cc(F)c1)N1CCC(CC(CO)N2CCC(c3c[nH]c4ccccc34)CC2)CC1 (stereo not shown) [Compound 54],5.6

# Same assay, conditions: test concentration of 25 μM; given where an IC50 value was not obtained; read-out: Inhibition of MCP-1 Binding, percent inhibition
row,inhibition at 25 µM [%],SMILES
1,54,"CC(=O)Nc1ccc2[nH]cc(C3CCN(CC(O)C4CCNCC4)CC3)c2c1 (stereo not shown) [Compound 185, N-{3-[1-(2-hydroxy-2-piperidin-4-yl-ethyl)-piperidin-4-yl]-1H-indol-5-yl}-acetamide]"
2,50,"COc1ccc(C2CCN(CC(O)C3CCN(C(=O)Nc4ccc5c(c4)OCO5)CC3)CC2)cc1 (stereo not shown) [Compound 100, 4-{1-hydroxy-2-[4-(4-methoxy-phenyl)-piperidin-1-yl]-ethyl}-piperidine-1-carboxylic acid benzo[1,3]dioxol-5-ylamide]"
3,44,"CCOC(=O)C(CC1CCN(C(=O)C=Cc2cc(F)c(F)c(F)c2)CC1)N1CCC(c2c[nH]c3ccccc23)CC1 (stereo not shown) [Compound 50, 2-[4-(1H-indol-3-yl)-piperidin-1-yl]-3-{1-[3-(3,4,5-trifluoro-phenyl)-acryloyl]-piperidin-4-yl}-propionic acid ethyl ester]"
4,51,"COc1ccc(C2CCN(CC(O)C3CCN(C(=O)Nc4ccc(C(F)(F)F)cc4Cl)CC3)CC2)cc1 (stereo not shown) [Compound 101, 4-{1-hydroxy-2-[4-(4-methoxy-phenyl)-piperidin-1-yl]-ethyl}-piperidine-1-carboxylic acid (2-chloro-4-trifluoromethyl-phenyl)-amide]"
5,51,"OC(CN1CCC(c2c[nH]c3ccc(N4CCOCC4)cc23)CC1)C1(O)CCN(c2nccc(C(F)(F)F)n2)CC1 (stereo not shown) [Compound 122, 4-{1-hydroxy-2-[4-(5-morpholin-4-yl-1H-indol-3-yl)-piperidin-1-yl]-ethyl}-1-(4-trifluoromethyl-pyrimidin-2-yl)-piperidin-4-ol]"

# Second part, the compound before the results:
row,SMILES,inhibition at 25 µM [%]
1,"CC(C)(C)OC(=O)N1CCC(O)(C(O)CN2CCC(c3ccc(Cl)cc3)CC2)CC1 (stereo not shown) [Compound 146, 4-{2-[4-(4-chloro-phenyl)-piperidin-1-yl]-1-hydroxy-ethyl}-4-hydroxy-piperidine-1-carboxylic acid tert-butyl ester]",41
2,"O=C(OCc1ccccc1)N1CCC(O)(C(O)CN2CCC(c3ccc(F)cc3)CC2)CC1 (stereo not shown) [Compound 125, 4-{2-[4-(4-fluoro-phenyl)-piperidin-1-yl]-1-hydroxy-ethyl}-4-hydroxy-piperidine-1-carboxylic acid benzyl ester]",51
3,"COc1ccc(C2CCN(CC(O)C3CCN(c4ccc([N+](=O)[O-])cn4)CC3)CC2)cc1 (stereo not shown) [Compound 127, 2-[4-(4-methoxy-phenyl)-piperidin-1-yl]-1-(5′-nitro-3,4,5,6-tetrahydro-2H-[1,2′]bipyridinyl-4-yl)-ethanol]",59
4,"CC(C)(C)OC(=O)N1CCC(C(O)CN2CCC(c3c[nH]c4ccc(NS(C)(=O)=O)cc34)CC2)CC1 (stereo not shown) [Compound 63, 4-{1-hydroxy-2-[4-(5-methanesulfonylamino-1H-indol-3-yl)-piperidin-1-yl]-ethyl}-piperidine-1-carboxylic acid tert-butyl ester]",46
5,"Cc1cccc(C=CC(=O)N2CCC(CC(C(=O)O)N3CCC(c4c[nH]c5ccccc45)CC3)CC2)c1 (stereo not shown) [Compound 53, 2-[4-(1H-indol-3-yl)-piperidin-1-yl]-3-[1-(3-m-tolyl-acryloyl)-piperidin-4-yl]-propionic acid]",48
